# Measurements taken from patent US12263248B2, “Compounds and compositions for intracellular delivery of therapeutic agents” (ModernaTX, Inc., priority 2018, dated 2025).
# Marks after values point to notes of the source that are not given here.
# Tests used:
# [1] = Lipid clearance: lipid level in mouse liver tissue (LC-MS/MS); format: in vivo; settings: for % dose remaining Mouse liver tissue, 24 h: CD-1 mouse liver 24 h after 0.5 mg/kg bolus dose mRNA, n = 5 ± S.D.; for original dose remaining in liver tissue 24 hours post dose: mice, intravenous
# Method: Quantification of Lipid by LC-MS/MS: Liver samples were homogenized following addition of 19 eq. (w/v) of water (DF=20). Protein was precipitated and analyzed against calibration standards prepared in matching blank. Chromatographic separation and quantification was accomplished with a LC-MS/MS System. Samples were injected and separated via HPLC A triple-quadrupole MS/MS system operated in positive ion mode was used for signal detection.
# [2] = Chemical stability of lipids in ethanol (lipid purity); format: physicochemical
# Method: Ester linkages were previously reported to trigger metabolism by esterases in vivo. (See Fukami, T. et al. Drug Metab. Pharmacokinet. 2012, 27, 466-477, the content of which is incorporated by reference herein in its entirety). […] (See Maier M. A., Mol. Ther. 2013, 21, 1570-1578, the content of which is incorporated herein in its entirety) First, the chemical stability of the lipids was evaluated by measuring ethanol stability at room temperature and 37° C. (Table 39). […] LNPs formed with compound 138 were larger, with a surface pKa>7. […] Removal of one ester function (compound 136) afforded LNPs with improved physiochemical characteristics and lower LNP surface pKa.
# hEPO mRNA [3] = experiment: hEPO expression after subcutaneous administration to mice; format: in vivo, female CD-1 mice; settings: for Novel lipid/MC3 expression ratio, 6 hr. time point, s.c. hEPO 0.5 mpk: relative to MC3
# Method: The effect of the lipids of the disclosure on protein expression upon subcutaneous administration was studied. Formulations containing lipids of the disclosure and an mRNA expressing luciferase or hEPO were administered subcutaneously to female CD-1 mice at 0.5 mpk. Expression levels were obtained via whole body luminescent imaging (BLI) at 3, 6 and 24 hours after injection and expression levels in liver, spleen and at the injection site were evaluated ex vivo after 24 hours. […] See also Tables 35 and 36, and FIGS. 19 and 27.
# Table 36 summarizes the hEPO expression levels using various nanoparticle compositions of the disclosure as compared to the hEPO expression level using a formulation containing MC3 or Compound 18, following subcutaneous administration, as described above.
# sC5b-9 = experiment: Complement activation in vitro (sC5b-9 levels); format: cell-based; settings: human cells contacted in vitro; for sC5b-9 levels relative to saline: in words
# Method: Complement activation assists in the clearance of pathogens from an organism. As it is undesirable that a subject's body recognize a nanoparticle composition as a foreign invader, low complement system activation upon administration of such a composition is preferred. The complex sC5b-9 is a marker for the activation of the complement system. Thus, human cells were contacted in vitro with nanoparticle compositions according to Table 1A and were evaluated for sC5b-9 levels.
# [4] = Residual lipid levels in rat liver and spleen (UPLC-MS); format: in vivo; settings: for % Lipid Remaining in liver, 48 h: 2 mpk, assuming 300 g rat and 15 g liver; for % remaining dose in liver, 48 h: intravenous, 2.0 mpk; for % dose remaining Rat liver tissue, 48 h: Sprague Dawley rat liver 48 h after 2 mg/kg bolus dose mRNA
# Method in brief: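 Rats received a single intravenous dose of lipid nanoparticle composition, and liver tissue was later collected to quantify residual lipid. Weighed tissue was homogenized in Milli-Q water (900 μL per 100 mg tissue) using an Omni probe homogenizer. 50 μL aliquots were mixed with 400 μL spiking solution, vortexed, centrifuged, and analyzed by UPLC on a C8 column with positive-mode ESI detection on a Sciex API5500 mass spectrometer.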
# IP-10 = experiment: Cytokine induction in rats after intravenous administration; format: in vivo, rat; settings: rats, 2.0 mpk, 6 hours, hEPO nanoparticle compositions
# Method: The expression of hEPO and cytokine induction in rats intravenously administered a nanoparticle composition at a dose of 2.0 mpk was measured at 6 h.
# Table 19A summarizes the hEPO expression, IP-10 induction, liver and spleen levels, and alanine aminotransferase (ALT) and aspartate aminotransferase (AST) measured upon intravenous administration of formulations including Compounds 48, 49, and 50 to rat at 0.2 and 2 mpk and hEPO mRNA. hEPO concentrations were measured 6 hours after administration, while cytokine induction and liver and spleen levels were measured 48 hours after administration. hEPO and IP-10 concentrations are presented in pg/ml, while liver levels are provided in ng/g. ALT and AST levels are presented in international units.
# hEPO mRNA [5] = experiment: hEPO expression and cytokine induction after intravenous administration to mice; format: in vivo
# Method: The expression of hEPO and cytokine induction in mice intravenously administered a nanoparticle composition at a dose of 0.5 mpk were measured at 3, 6, and 24 hours. […] The expression of hEPO in mice intramuscularly administered a nanoparticle composition from Table 1B at a dose of 0.01 mpk were measured at 3, 6, and 24 hours.
# Blood collection and analysis for hEPO. Blood was collected from mice or rats via the tail vein and hEPO concentrations were determined using a hEPO ELISA assay.
# [6] = mice, intravenous, 0.5 mpk, 6 h
smiles,measurement,setting,value
"CCCCCCCCCOC(=O)CCCCCCCN(CCO)CCCCCCCC(=O)OCCCCCCCCC [Compound 138, Dinonyl 8,8′-((2-hydroxyethyl)azanediyl)dioctanoate]","% dose remaining Mouse liver tissue, 24 h",[1],0%
same,original dose remaining in liver tissue 24 hours post dose,[1],no lipid detected
same,Lipid Purity,[2]; t = 0,97.59%
same,Lipid Purity,"[2]; t = 96 h, 25° C.",98.64%
same,Lipid Purity,"[2]; t = 96 h, 37° C.",97.82%
"CCCC/C=C\CCC(CC/C=C\CCCC)OC(=O)CCCCCCCN(CCO)CCCCCCCC(=O)OCCCCCCCCC [Compound 60, (5Z,12Z)-Heptadeca-5,12-dien-9-yl 8-((2-hydroxyethyl)(8-(nonyloxy)-8-oxooctyl)amino)octanoate]","Novel lipid/MC3 expression ratio, 6 hr. time point, s.c. hEPO 0.5 mpk",hEPO mRNA [3],6.59
"CCCCCCCCC(CCCCCCCC)OC(=O)CCCCCCCN(CCO)CCCCCCCC(=O)OC(CCCCCCCC)CCCCCCCC [Compound 29, Di(heptadecan-9-yl) 8,8′-((2-hydroxyethyl)azanediyl)dioctanoate]","% dose remaining Mouse liver tissue, 24 h",[1],68 ± 9.2%
same,original dose remaining in liver tissue 24 hours post dose,[1],68%
same,Lipid Purity,[2]; t = 0,97.017%
same,Lipid Purity,"[2]; t = 96 h, 25° C.",97.67%
same,Lipid Purity,"[2]; t = 96 h, 37° C.",98.10%
same,Fold increase in sC5b-9 levels versus saline,sC5b-9,0.93
same,sC5b-9 levels relative to saline,sC5b-9,slightly decrease
"CCCCCCCCCOC(=O)CCCCCCCN(CCO)CCCCCCCOC(=O)C(CCCCCCCC)CCCCCCCC [Compound 30, 7-((2-Hydroxyethyl)(8-(nonyloxy)-8-oxooctyl)amino)heptyl 2-octyldecanoate]","% Lipid Remaining in liver, 48 h",[4]; rats,<0.01%
same,"% remaining dose in liver, 48 h",[4]; rats,<1%
same,"hEPO expression Lipid/Compound 18 ratio, 6 hr.","hEPO mRNA [3]; 0.5 mpk, 6 hr.",1.35
same,"hEPO expression Lipid/MC3 ratio, 6 hr.","hEPO mRNA [3]; 0.5 mpk, 6 hr.",6.53
same,"hEPO expression Lipid/Compound 18 ratio, AUC","hEPO mRNA [3]; 0.5 mpk, AUC",1.27
same,"hEPO expression Lipid/MC3 ratio, AUC","hEPO mRNA [3]; 0.5 mpk, AUC",6.38
same,IP-10,IP-10,214.5 pg/mL
same,Fold increase in sC5b-9 levels versus saline,sC5b-9,0.94
same,sC5b-9 levels relative to saline,sC5b-9,slightly decrease
"CCCCCCCCCOC(=O)CCCCCCCN(CCCCCCCC(=O)OC(CCCCCCCC)CCCCCCCC)CCCNC(=S)N(C)C [Compound 111, Heptadecan-9-yl 8-((3-(3,3-dimethylthioureido)propyl)(8-(nonyloxy)-8-oxooctyl)amino)octanoate]","Novel lipid/MC3 expression ratio, 6 hr. time point, s.c. hEPO 0.5 mpk",hEPO mRNA [3],6.40
"CCCCCCCC/C=C\COC(=O)CCCCCN(CCO)CCCCCC(=O)OC/C=C\CCCCCCCC [Compound 140, Di((Z)-undec-2-en-1-yl) 6,6′-((2-hydroxyethyl)azanediyl)dihexanoate]",Fold increase in sC5b-9 levels versus saline,sC5b-9,0.75
"CCCCCCCCCOC(=O)CCCCCCCN(CCCCCCCC(=O)OC(CCCCCCCC)CCCCCCCC)CCCNS(C)(=O)=O [Compound 109, Heptadecan-9-yl 8-((3-(methylsulfonamido)propyl)(8-(nonyloxy)-8-oxooctyl)amino)octanoate]","Novel lipid/MC3 expression ratio, 6 hr. time point, s.c. hEPO 0.5 mpk",hEPO mRNA [3],6.78
"CCCCCCCCCN(CCO)CCCCCCCC(=O)OC(CCCCCCCC)CCCCCCCC [Compound 3, Heptadecan-9-yl 8-((2-hydroxyethyl)(nonyl)amino)octanoate]","% Lipid Remaining in liver, 48 h",[4]; rats,14%
same,"% remaining dose in liver, 48 h",[4]; rats,14.2%
same,IP-10,IP-10,542 pg/mL
"CCCCCCCCCOC(=O)CCCCCCCN(CCO)CCCCCCCCCC(=O)OC(CCCCCC)CCCCCC [Compound 147, Tridecan-7-yl 10-((2-hydroxyethyl)(8-(nonyloxy)-8-oxooctyl)amino)decanoate]","% dose remaining, liver, 24 h","[4]; Table 19B, liver, 24 h",0.00%
"CCCCC/C=C\C/C=C\CCCCCCCCN(CCO)CCCCCCCC(=O)OC(CCCCCCCC)CCCCCCCC [Compound 6, Heptadecan-9-yl 8-((2-hydroxyethyl)((9Z,12Z)-octadeca-9,12-dien-1-yl)amino)octanoate]","% dose remaining Mouse liver tissue, 24 h",[1],67 ± 9.8%
same,original dose remaining in liver tissue 24 hours post dose,[1],67%
same,hEPO expression and average total flux compared with MC3,"hEPO mRNA [5]; Table 12 comparison, in words",outperform MC3
same,hEPO concentrations compared with MC3 formulations,"hEPO mRNA [5]; mice, i.v., 0.5 mpk, 3, 6 and 24 hours",higher hEPO concentrations than MC3 formulations
same,hEPO expression 3 h,"hEPO mRNA [5]; mice, intravenous, 0.5 mpk, 3 h",2.31e+06 pg/mL
same,"Average hEPO concentration (pg/ml, 6 h)",hEPO mRNA [5]; [6],3.17e+06 pg/mL
same,Cytokine expression IL-6 (6 h),hEPO mRNA [5]; [6],10.15 pg/mL
same,Cytokine expression IP-10 (6 h),hEPO mRNA [5]; [6],116.66 pg/mL
same,hEPO expression 6 h,hEPO mRNA [5]; [6],3.17e+06 pg/mL
same,Fold increase in hEPO concentration relative to MC3,"hEPO mRNA [5]; mice, intravenous, 0.5 mpk, 6 h, Table 12",1.73
same,hEPO expression 24 h,"hEPO mRNA [5]; mice, intravenous, 0.5 mpk, 24 h",1.11e+06 pg/mL
same,Lipid Purity,[2]; t = 0,93.80%
same,Lipid Purity,"[2]; t = 96 h, 25° C.",93.21%
same,Lipid Purity,"[2]; t = 96 h, 37° C.",94.29%
same,Fold increase in sC5b-9 levels versus saline,sC5b-9,1.39
same,sC5b-9 levels relative to saline,sC5b-9,somewhat increase
"CCCCC/C=C\C/C=C\CCCCCCCCN(CCO)CCCCCCCC(=O)OCCCCCCCCC [Compound 136, Nonyl 8-((2-hydroxyethyl)((9Z,12Z)-octadeca-9,12-dien-1-yl)amino)octanoate]","% dose remaining Mouse liver tissue, 24 h",[1],0%
same,Lipid Purity,[2]; t = 0,91.81%
same,Lipid Purity,"[2]; t = 96 h, 25° C.",93.17%
same,Lipid Purity,"[2]; t = 96 h, 37° C.",93.86%
same,Fold increase in sC5b-9 levels versus saline,sC5b-9,0.69
"CCCCCCCCCCCOC(=O)CCCCCN(CCO)CCCCCCCC(=O)OC(CCCCCCCC)CCCCCCCC [Compound 25, Heptadecan-9-yl 8-((2-hydroxyethyl)(6-oxo-6-(undecyloxy)hexyl)amino)octanoate]","% dose remaining Rat liver tissue, 48 h",[4],1.3^e %
same,% lipid remaining in liver after 48 hours,[4]; liver,1.32%
same,"% Lipid Remaining in liver, 48 h",[4]; rats,1.32%
same,"% remaining dose in liver, 48 h",[4]; rats,1.3%
same,"Novel lipid/MC3 expression ratio, 6 hr. time point, s.c. hEPO 0.5 mpk",hEPO mRNA [3],5.43
same,IP-10,IP-10,533.5 pg/mL
same,Lipid Purity,[2]; t = 0,95.58%
same,Lipid Purity,"[2]; t = 96 h, 25° C.",96.23%
same,Lipid Purity,"[2]; t = 96 h, 37° C.",96.13%
same,Fold increase in sC5b-9 levels versus saline,sC5b-9,1.02
"CCCCCC/C=C\COC(=O)CCCCCCCN(CCO)CCCCCCCC(=O)OC(CCCCCCCC)CCCCCCCC [Compound 24, Heptadecan-9-yl (Z)-8_((2-hydroxyethyl) (8-(non-2-en-1-yloxy)-8-oxooctyl)amino)octanoate]","% Lipid Remaining in liver, 48 h",[4]; rats,0.016%
same,"% remaining dose in liver, 48 h",[4]; rats,<1%
same,IP-10,IP-10,323.5 pg/mL
same,Fold increase in sC5b-9 levels versus saline,sC5b-9,0.81
same,sC5b-9 levels relative to saline,sC5b-9,slightly decrease
"CCCCCCCCCOC(=O)CCCN(CCO)CCCCCCCC(=O)OC(CCCCCCCC)CCCCCCCC [Compound 26, Heptadecan-9-yl 8-((2-hydroxyethyl)(4-(nonyloxy)-4-oxobutyl)amino) octanoate]","% dose remaining Rat liver tissue, 48 h",[4],20 ± 4.0^f %
same,parent amino lipid levels in the liver,"[4]; Sprague Dawley rats, 48 h post dose",20%
same,% lipid remaining in liver after 48 hours,[4]; liver,20%
same,"% Lipid Remaining in liver, 48 h",[4]; rats,20%
same,lipid levels in the liver after 48 hours,"[4]; rats, i.v., dose response study",about 19%
same,Lipid Purity,[2]; t = 0,98.64%
same,Lipid Purity,"[2]; t = 96 h, 25° C.",97.38%
same,Lipid Purity,"[2]; t = 96 h, 37° C.",95.72%
